Consider four substances from patent US7371524B2, “Substituted azaporphyrins as fluorescence labels” (priority 2003, dated 2008).

Type in all cases: physicochemical
Data set [1] is described as follows: Fluorescence intensity and polarization of free dye in buffers and glycerol (solvent sensitivity). Conditions: for Fluorescence Intensity (I), BBS / Polarization (mp), BBS: borate buffered saline pH 8.0; for Fluorescence Intensity (I), TDx Buffer: intensities comparable only horizontally; for solvent sensitivity of fluorescence intensity: buffer, buffer plus serum, glycerol. From the text:
The performance of a fluorophore (fluorescent moiety) can be partly assessed by measurements on the free dye i.e., not in a complete fluorescent probe. Meaningful parameters in this kind of test include fluorescence intensity and polarization/anisotropy which usually are altered when the fluorophore is exposed to different ionic strengths, specific ions or biomolecules such as are present in blood serum. These effects may be thought of as “solvent effects” and may be produced either by changes in the interactions between molecules of the fluorophore to change the state of aggregation or between fluorophore molecules and the components of the solvent (nonspecific binding, NSB).
In Table 1 the performance of any one dye can be judged by the changes in fluorescence intensity (I), and/or the changes in polarization (mp, milli-polarization units) as one proceeds horizontally across the table. The “perfect” fluorescence label would have the same values for each of these parameters regardless of the solvent composition.
Abbreviations: mp: […]; TDx Buffer: Commercial buffer used in fluorescence polarization assays; Pc: phthalocyanine; BBS: Borate buffered saline (0.25 M NaCl, 0.0232 M boric acid and 0.00179 M sodium tetraborate. The pH is finally adjusted to 8.0+/−0.05 with 1M NaOH). When serum was tested, 25 μl of whole serum was added to 1 ml of BBS (containing 25 μl of the dye already added). Note that the relative concentrations of the various fluorophores is not known so that comparisons of fluorescence intensities are meaningful only when proceeding in a horizontal direction. An alternative to BBS for manipulating LJB-3 in aqueous solutions is borate buffered KCl (BBKCl) which is made by mixing 33.1 ml of 0.70 M boric acid, 4.0 ml of 0.50 M K2B4O7, 75 ml of 4.0 M KCl and water to make 1 liter: pH ca. 8.1.
Fluorescence measurements: These were made in a transient state polarization fluorometer (FAST-1, Hyperion, Inc. Miami, Fla.)

The nature of data set [2]: Near infrared absorbance of dye.
Data set [3] can be described thus: Passage through membranes and gel permeation chromatography (micelle formation). The settings on record: PEG dye at 10^−4 M and above. From the text:
In addition, an advantage emerges in that micelle formation by the PEG is absent. […] Also, the dye moves in the void volume in gel permeation chromatography designed to separate macromolecules from small molecules.

Take “Hydroxyaluminumphthalocyaninetrisulfonate [Al Pc trisulfonate, reference compound]”: in data set [1], the “sensitivity to ionic strength” value was “strong sensitivity to ionic strength”; the “Fluorescence Intensity (I), BBS” value is recorded as 520; the “Polarization (mp), BBS” value amounted to 3.4 mp; the “Fluorescence Intensity (I), Glycerol” value was found to be 3155. Besides, in data set [1], the “Polarization (mp), Glycerol” value was 236 mp; the “Polarization (mp), TDx Buffer” value worked out at 1.7 mp; the “Fluorescence Intensity (I), TDx Buffer” value was determined as 1108; the “solvent sensitivity of fluorescence intensity” value (“solvent sensitivity” for short) is “very solvent-sensitive”.
As to DiphosphatoSidicarboxyphthalocyanine, in data set [1], the “Fluorescence Intensity (I), BBS” value was 1078; the “Polarization (mp), BBS” value amounted to 2.4 mp; the “Fluorescence Intensity (I), Glycerol” value worked out at 454; the “Polarization (mp), Glycerol” value is listed as 105 mp. In data set [1], the “Polarization (mp), TDx Buffer” value is 6.7 mp and the “Fluorescence Intensity (I), TDx Buffer” value was determined as 1069.
With “dihydroxy dicarboxy silicon phthalocyanine sulfonate [LJB-3]”, in data set [1], the “Fluorescence Intensity (I), BBS” value is reported as 741; the “Polarization (mp), BBS” value is listed as 2.0 mp; the “Fluorescence Intensity (I), Glycerol” value was found to be 1351; the “Polarization (mp), Glycerol” value is given as 199 mp. In data set [1], the “Polarization (mp), TDx Buffer” value was “−.03 mp”; the “Fluorescence Intensity (I), TDx Buffer” value is given as 1230; the “solvent sensitivity” value is given as “almost the same fluorescence output in buffer, buffer plus serum or glycerol alone”. For the same substance, the “near infrared absorbance maximum” value in data set [2] is 679 nm. In addition, the “behaviour on membranes (30K daltons) and in gel permeation chromatography” value in data set [3] was “behaves as expected for a molecule of its formula weight”.
As for “Bis-hydroxy (2,3Dicarboxyphthalocyanino) Silicon IV”, in data set [1], the “solvent sensitivity” value is “less sensitive to serum and solvent than is the Al compound”.
